Experimental findings from DBAASP are described below.

Some test systems named below: Bacillus subtilis DELTA; Candida parapsilosis; Escherichia coli UB1005.
What all share (assay): ≥ marks a high value that may be exact or a test limit, other limits are often not marked, values filed in µg/mL are converted to µM
The subject of experiment [1] is Escherichia coli DH5alpha.
Experiment [2] relates to Pseudomonas aeruginosa PAO1.
Experiment [3] deals with Zymomonas mobilis ATCC 10988.
For experiment [4], the system named is Pseudomonas aeruginosa H374.
For experiment [5], the system named is Pseudomonas aeruginosa H547.
For experiment [6], the system named is Pseudomonas aeruginosa H744.
Experiment [7] has as its system Pseudomonas aeruginosa K799.
In experiment [8] the test system is Pseudomonas aeruginosa Z61.
In experiment [9] the test system is Salmonella enterica subsp. enterica serovar Typhimurium ATCC 14028s.

Values after ≈ are worked out from the molar mass of the structure shown.

As a reminder, the MIC is the smallest concentration in the dilution series that meets the test's criterion for growth inhibition. With `CC[C@H](C)[C@H](NC(=O)[C@H](CCCCN)NC(=O)[C@H](CC(C)C)NC(=O)[C@H](CC(C)C)NC(=O)CN)C(=O)N[C@H](C(=O)N[C@@H](CCCCN)C(=O)N[C@@H](CCCCN)C(=O)N[C@@H](CC(C)C)C(=O)N[C@@H](CC(C)C)C(N)=O)[C@@H](C)CC` [GLLKIIKKLL], the minimum inhibitory concentration (MIC) was 6.15 µM (≈ 6.99 µg/mL) in the experiment with Bacillus subtilis DELTA; 6.15 µM (≈ 6.99 µg/mL) against Candida parapsilosis; ≥ 87.8 µM in [1]; 2.63 µM (≈ 3 µg/mL) in experiment [2]; 13.2 µM (≈ 15 µg/mL) in [3].

Consider `CC[C@H](C)[C@H](NC(=O)[C@H](CC(C)C)NC(=O)[C@@H]1CCCN1C(=O)[C@H](CCCCN)NC(=O)[C@H](C)NC(=O)[C@@H](NC(=O)[C@@H](NC(=O)[C@H](CC(C)C)NC(=O)[C@@H](NC(=O)[C@H](CO)NC(=O)[C@@H](NC(=O)[C@H](CCCCN)NC(=O)[C@H](C)NC(=O)[C@H](CO)NC(=O)[C@@H](NC(=O)[C@H](CC(C)C)NC(=O)[C@H](CC(C)C)NC(=O)[C@H](CCCCN)NC(=O)[C@@H](NC(=O)[C@H](Cc1ccccc1)NC(=O)[C@H](CO)NC(=O)[C@H](CCCCN)NC(=O)[C@H](CCCCN)NC(=O)[C@@H](N)CCCCN)[C@@H](C)CC)[C@@H](C)O)C(C)C)C(C)C)[C@@H](C)O)[C@@H](C)O)C(=O)N[C@@H](CO)C(=O)N[C@@H](CO)C(=O)O` [KKKSFIKLLTSAKVSVLTTAKPLISS], for which the minimal inhibitory concentration (MIC) was found to be 11.5 µM (≈ 32 µg/mL) in the experiment on Escherichia coli UB1005; 22.9 µM (≈ 64 µg/mL) in experiment [4]; 22.9 µM (≈ 64 µg/mL) in experiment [5]; 22.9 µM (≈ 64 µg/mL) in experiment [6]; 22.9 µM (≈ 64 µg/mL) in experiment [7]; 22.9 µM (≈ 64 µg/mL) in [8]. In addition, the minimum inhibitory concentration (MIC) in experiment [9] was 22.9 µM (≈ 64 µg/mL).

For the compound `CC[C@H](C)[C@H](NC(=O)[C@H](CC(C)C)NC(=O)[C@H](C)NC(=O)[C@@H]1CCCN1C(=O)[C@H](CC(C)C)NC(=O)CNC(=O)[C@@H](NC(=O)[C@@H](NC(=O)[C@H](CC(C)C)NC(=O)[C@@H](NC(=O)[C@H](CCCCN)NC(=O)[C@H](CO)NC(=O)CNC(=O)CNC(=O)[C@H](CCCCN)NC(=O)[C@@H](NC(=O)[C@H](CC(C)C)NC(=O)[C@H](CC(N)=O)NC(=O)[C@H](CCCCN)NC(=O)[C@@H](NC(=O)[C@H](Cc1ccccc1)NC(=O)[C@H](CO)NC(=O)[C@H](CCCCN)NC(=O)[C@H](Cc1c[nH]c2ccccc12)NC(=O)[C@@H](N)CCCCN)[C@@H](C)CC)[C@@H](C)O)[C@@H](C)CC)[C@@H](C)O)[C@@H](C)O)C(=O)N[C@@H](CO)C(=O)O` [KWKSFIKNLTKGGSKILTTGLPALIS], the minimal inhibitory concentration (MIC) against Escherichia coli UB1005 worked out at 1.43 µM (≈ 4 µg/mL); in experiment [4], 2.85 µM (≈ 8 µg/mL); in experiment [5] it was 11.4 µM (≈ 32 µg/mL); in experiment [6], 5.71 µM (≈ 16 µg/mL); in experiment [7], 22.8 µM (≈ 64 µg/mL); in experiment [8] it was 11.4 µM (≈ 32 µg/mL). Besides, the MIC in experiment [9] was 15.3 µM (≈ 43 µg/mL).
